#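 Interpolation was linear, between the two tested concentrations surrounding the appropriate level; five concentrations were tested over 48 hours in 96-well plates. Abbreviation: GI50, concentration required for 50% inhibition of growth.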 Calls of active or inactive are those of the source. Rule as the data show it: active = GI50 up to about 1.1 µM and inactive = higher.
# Columns and labels:
# Assay in all cases: NCI-60 cell line screen, 48 h
# [1] = system: SR
# [2] = system: HCT-15
# [3] = system: UACC-257
# [4] = system: SF-539
# [5] = system: OVCAR-4
# [6] = system: CAKI-1
# [7] = system: HOP-92
# [8] = system: NCI-H23
# [9] = system: KM12
# [10] = system: ACHN
# [11] = system: SK-OV-3
# [12] = system: SF-295
# [13] = system: COLO 205
# [14] = system: K562
# [15] = system: HCT-116
# [16] = system: SNB-75
# [17] = system: HT-29
# [18] = system: UACC-62
# [19] = system: CCRF-CEM
# [20] = system: M14
# [21] = system: NCI/ADR-RES
# [22] = system: NCI-H226
# [23] = system: SK-MEL-5
# [24] = system: EKVX
# [25] = system: SK-MEL-28
# [26] = system: MDA-MB-231
# [27] = system: DU-145
# [28] = system: LOX IMVI
# [29] = system: HL-60
# [30] = system: OVCAR-8
# [31] = system: NCI-H522
# [32] = system: MOLT-4
# [33] = system: U-251
# [34] = system: UO-31
# [35] = system: OVCAR-5
# [36] = system: NCI-H460
# [37] = system: HOP-62
# [38] = system: MDA-MB-435
# [39] = system: OVCAR-3
# [40] = system: SK-MEL-2
# [41] = system: A498
# [42] = system: 786-0
# [43] = system: MDA-N
# [44] = system: IGROV-1
# [45] = system: A549
# [46] = system: MCF7
# [47] = system: Hs-578T
# [48] = system: T47D
# [49] = system: BT-549
# [50] = system: TK-10
# [51] = system: SN12C
# [52] = system: SW-620
# [53] = system: SF-268
# [54] = system: Malme-3M
# [55] = system: HCC 2998
# [56] = system: PC-3
# [57] = system: RPMI-8226
# [58] = system: SNB-19
# [59] = system: RXF 393
structure (smiles),measurement,setting,value
CC(C)=C1C(=O)c2c(Cl)sc(Cl)c2C1=O,GI50,[1],27.2 µM (inactive)
same,GI50,[2],20.7 µM
same,GI50,[3],21.3 µM (inactive)
same,GI50,[4],22.3 µM (inactive)
same,GI50,[5],14.5 µM (inactive)
same,GI50,[6],18.3 µM (inactive)
same,GI50,[7],22.6 µM (inactive)
same,GI50,[8],17.8 µM (inactive)
same,GI50,[9],16.5 µM (inactive)
same,GI50,[10],21 µM (inactive)
same,GI50,[11],> 100 µM (inactive)
same,GI50,[12],39.5 µM (inactive)
same,GI50,[13],20.9 µM (inactive)
same,GI50,[14],37.6 µM (inactive)
same,GI50,[15],17.2 µM (inactive)
same,GI50,[16],18.4 µM (inactive)
same,GI50,[17],28.8 µM (inactive)
same,GI50,[18],19.9 µM (inactive)
same,GI50,[19],26.1 µM (inactive)
same,GI50,[20],19 µM (inactive)
same,GI50,[21],24 µM (inactive)
same,GI50,[22],35.6 µM (inactive)
same,GI50,[23],93.3 µM (inactive)
same,GI50,[24],27.7 µM (inactive)
same,GI50,[25],21.7 µM (inactive)
same,GI50,[26],27.6 µM (inactive)
same,GI50,[27],22.4 µM (inactive)
same,GI50,[28],18.2 µM (inactive)
same,GI50,[29],31.3 µM (inactive)
same,GI50,[30],19.7 µM (inactive)
same,GI50,[31],16.4 µM (inactive)
same,GI50,[32],36.6 µM (inactive)
same,GI50,[33],22.2 µM (inactive)
same,GI50,[34],23.4 µM (inactive)
same,GI50,[35],> 100 µM (inactive)
same,GI50,[36],> 100 µM (inactive)
same,GI50,[37],42.4 µM (inactive)
same,GI50,[38],18.6 µM (inactive)
same,GI50,[39],29.3 µM (inactive)
same,GI50,[40],20 µM (inactive)
same,GI50,[41],> 100 µM (inactive)
same,GI50,[42],22.9 µM (inactive)
same,GI50,[43],22.6 µM (inactive)
same,GI50,[44],21.9 µM (inactive)
same,GI50,[45],26.1 µM (inactive)
same,GI50,[46],41.2 µM (inactive)
same,GI50,[47],32.8 µM (inactive)
same,GI50,[48],31 µM (inactive)
same,GI50,[49],22 µM (inactive)
same,GI50,[50],32.5 µM (inactive)
same,GI50,[51],20.7 µM (inactive)
same,GI50,[52],28.7 µM (inactive)
same,GI50,[53],30.2 µM (inactive)
same,GI50,[54],19 µM (inactive)
CC1OC(OC2C(CO)OC(O[C@H]3CC[C@@]4(C)C(=CC[C@H]5[C@@H]6C[C@@H]7O[C@](O)(CC[C@@H](C)COC8OC(CO)C(O)C(O)C8O)[C@@H](C)[C@@H]7[C@@]6(C)CC[C@@H]54)C3)C(OC3OC(C)C(O)C(O)C3O)C2O)C(O)C(O)C1O (stereo partly drawn),GI50,[1],3.23 µM (inactive)
same,GI50,[2],1.89 µM
same,GI50,[3],4.02 µM (inactive)
same,GI50,[4],1.95 µM (inactive)
same,GI50,[5],6.73 µM (inactive)
same,GI50,[6],2.47 µM (inactive)
same,GI50,[8],3.55 µM (inactive)
same,GI50,[9],2.24 µM (inactive)
same,GI50,[10],5.28 µM (inactive)
same,GI50,[55],2.9 µM (inactive)
same,GI50,[11],2.84 µM (inactive)
same,GI50,[12],3.91 µM (inactive)
same,GI50,[13],2.56 µM (inactive)
same,GI50,[14],5.07 µM (inactive)
same,GI50,[15],2.08 µM (inactive)
same,GI50,[16],1.48 µM (inactive)
same,GI50,[17],1.98 µM (inactive)
same,GI50,[18],2.52 µM (inactive)
same,GI50,[19],2.3 µM (inactive)
same,GI50,[20],1.91 µM (inactive)
same,GI50,[21],2.06 µM (inactive)
same,GI50,[23],4.21 µM (inactive)
same,GI50,[24],9.38 µM (inactive)
same,GI50,[25],2.46 µM (inactive)
same,GI50,[56],2.41 µM (inactive)
same,GI50,[26],6.11 µM (inactive)
same,GI50,[57],2.34 µM (inactive)
same,GI50,[27],2.3 µM (inactive)
same,GI50,[58],2.23 µM (inactive)
same,GI50,[28],1.56 µM (inactive)
same,GI50,[29],2.13 µM (inactive)
same,GI50,[30],2.19 µM (inactive)
same,GI50,[31],2.07 µM (inactive)
same,GI50,[32],1.58 µM (inactive)
same,GI50,[33],1.87 µM (inactive)
same,GI50,[34],2.82 µM (inactive)
same,GI50,[35],2.52 µM (inactive)
same,GI50,[36],1.88 µM (inactive)
same,GI50,[37],2.16 µM (inactive)
same,GI50,[38],3.06 µM (inactive)
same,GI50,[39],12.9 µM (inactive)
same,GI50,[40],4.98 µM (inactive)
same,GI50,[41],> 100 µM (inactive)
same,GI50,[42],2.07 µM (inactive)
same,GI50,[43],2.89 µM (inactive)
same,GI50,[59],2.4 µM (inactive)
same,GI50,[45],1.57 µM (inactive)
same,GI50,[47],33.1 µM (inactive)
same,GI50,[48],4.05 µM (inactive)
same,GI50,[49],3.88 µM (inactive)
same,GI50,[50],8.45 µM (inactive)
same,GI50,[51],2.2 µM (inactive)
same,GI50,[52],1.45 µM (inactive)
same,GI50,[53],3.23 µM (inactive)
same,GI50,[54],1.89 µM (inactive)
CCOC(=O)C1(C(=O)OCC)C=C(c2ccccc2)N(C2OC(COC(C)=O)C(OC(C)=O)C(OC(C)=O)C2OC(C)=O)C1=S (stereo not drawn),GI50,[1],> 100 µM (inactive)
same,GI50,[2],> 100 µM
same,GI50,[3],90.4 µM (inactive)
same,GI50,[4],> 100 µM (inactive)
same,GI50,[5],51.6 µM (inactive)
same,GI50,[6],> 100 µM (inactive)
same,GI50,[7],93.3 µM (inactive)
same,GI50,[8],> 100 µM (inactive)
same,GI50,[9],45.6 µM (inactive)
same,GI50,[55],> 100 µM (inactive)
same,GI50,[11],70.3 µM (inactive)
same,GI50,[12],> 100 µM (inactive)
same,GI50,[13],> 100 µM (inactive)
same,GI50,[15],> 100 µM (inactive)
same,GI50,[17],> 100 µM (inactive)
same,GI50,[18],57.7 µM (inactive)
same,GI50,[19],33.9 µM (inactive)
same,GI50,[20],56.5 µM (inactive)
same,GI50,[21],64.1 µM (inactive)
same,GI50,[22],> 100 µM (inactive)
same,GI50,[23],> 100 µM (inactive)
same,GI50,[24],> 100 µM (inactive)
same,GI50,[25],> 100 µM (inactive)
same,GI50,[26],> 100 µM (inactive)
same,GI50,[57],17 µM (inactive)
same,GI50,[27],> 100 µM (inactive)
same,GI50,[58],> 100 µM (inactive)
same,GI50,[28],> 100 µM (inactive)
same,GI50,[29],22.9 µM (inactive)
same,GI50,[30],> 100 µM (inactive)
same,GI50,[31],73.1 µM (inactive)
same,GI50,[32],42.4 µM (inactive)
same,GI50,[33],> 100 µM (inactive)
same,GI50,[34],61.5 µM (inactive)
same,GI50,[35],> 100 µM (inactive)
same,GI50,[36],> 100 µM (inactive)
same,GI50,[37],> 100 µM (inactive)
same,GI50,[38],54 µM (inactive)
same,GI50,[39],> 100 µM (inactive)
same,GI50,[40],36.8 µM (inactive)
same,GI50,[41],85.1 µM (inactive)
same,GI50,[42],> 100 µM (inactive)
same,GI50,[43],> 100 µM (inactive)
same,GI50,[59],> 100 µM (inactive)
same,GI50,[44],> 100 µM (inactive)
same,GI50,[45],59.2 µM (inactive)
same,GI50,[46],44.7 µM (inactive)
same,GI50,[47],68.7 µM (inactive)
same,GI50,[48],> 100 µM (inactive)
same,GI50,[49],72.3 µM (inactive)
same,GI50,[51],> 100 µM (inactive)
same,GI50,[52],> 100 µM (inactive)
same,GI50,[53],> 100 µM (inactive)
same,GI50,[54],> 100 µM (inactive)
